# Assay results published in patent publication US11046699B2, “Pyrazolo-pyrimidin-amino-cycloalkyl compounds and their therapeutic uses” (RAPT THERAPEUTICS, INC., priority 2018, dated 2021).
# Molecular target: GCN2 (Homo sapiens, UniProt Q9P2K8)
# Assay: GCN2 enzymatic endpoint assay: phosphorylation of GFP-eIF2α measured by TR-FRET (Lanthascreen)
# Type: biochemical
# Conditions: tested as described in Example 77; compound and/or hydrochloride, dihydrochloride or trifluoroacetic acid salt; read-out: IC 50 Activity
# Protocol: The Enzymatic assay was run as an endpoint assay to quantify the activity of the serine/threonine GCN2 kinase by way of measuring phosphorylation of its natural substrate, eiF2α.
# The enzymatic reaction was initiated by incubating with 2 μM ATP and 80 nM of GFP labeled eiF2a substrate at room temperature and then stopped after 90 minutes with EDTA. The amount of phosphorylated eIF2α is determined by TR-FRET (Lanthascreen). A terbium labeled antibody associates with the phosphorylated substrate resulting in an increased TR-FRET value. Activity was calculated as the ratio of the acceptor (fluorescein) signal at 520 nm wavelength to the donor (terbium) signal 495 nm. The amount of antibody that is bound to the tracer is directly proportional to the amount of phosphorylated substrate present, and in this manner, kinase activity can be detected and measured by an increase in the TR-FRET value.
# Compound addition by D300
# 5 μL enzyme solution in assay buffer
# 5 μL substrate/ATP mixture in assay buffer
# 5 μL stop/detection mix in antibody dilution buffer
# Sequence of GCN2 (Q9P2K8 whole entry): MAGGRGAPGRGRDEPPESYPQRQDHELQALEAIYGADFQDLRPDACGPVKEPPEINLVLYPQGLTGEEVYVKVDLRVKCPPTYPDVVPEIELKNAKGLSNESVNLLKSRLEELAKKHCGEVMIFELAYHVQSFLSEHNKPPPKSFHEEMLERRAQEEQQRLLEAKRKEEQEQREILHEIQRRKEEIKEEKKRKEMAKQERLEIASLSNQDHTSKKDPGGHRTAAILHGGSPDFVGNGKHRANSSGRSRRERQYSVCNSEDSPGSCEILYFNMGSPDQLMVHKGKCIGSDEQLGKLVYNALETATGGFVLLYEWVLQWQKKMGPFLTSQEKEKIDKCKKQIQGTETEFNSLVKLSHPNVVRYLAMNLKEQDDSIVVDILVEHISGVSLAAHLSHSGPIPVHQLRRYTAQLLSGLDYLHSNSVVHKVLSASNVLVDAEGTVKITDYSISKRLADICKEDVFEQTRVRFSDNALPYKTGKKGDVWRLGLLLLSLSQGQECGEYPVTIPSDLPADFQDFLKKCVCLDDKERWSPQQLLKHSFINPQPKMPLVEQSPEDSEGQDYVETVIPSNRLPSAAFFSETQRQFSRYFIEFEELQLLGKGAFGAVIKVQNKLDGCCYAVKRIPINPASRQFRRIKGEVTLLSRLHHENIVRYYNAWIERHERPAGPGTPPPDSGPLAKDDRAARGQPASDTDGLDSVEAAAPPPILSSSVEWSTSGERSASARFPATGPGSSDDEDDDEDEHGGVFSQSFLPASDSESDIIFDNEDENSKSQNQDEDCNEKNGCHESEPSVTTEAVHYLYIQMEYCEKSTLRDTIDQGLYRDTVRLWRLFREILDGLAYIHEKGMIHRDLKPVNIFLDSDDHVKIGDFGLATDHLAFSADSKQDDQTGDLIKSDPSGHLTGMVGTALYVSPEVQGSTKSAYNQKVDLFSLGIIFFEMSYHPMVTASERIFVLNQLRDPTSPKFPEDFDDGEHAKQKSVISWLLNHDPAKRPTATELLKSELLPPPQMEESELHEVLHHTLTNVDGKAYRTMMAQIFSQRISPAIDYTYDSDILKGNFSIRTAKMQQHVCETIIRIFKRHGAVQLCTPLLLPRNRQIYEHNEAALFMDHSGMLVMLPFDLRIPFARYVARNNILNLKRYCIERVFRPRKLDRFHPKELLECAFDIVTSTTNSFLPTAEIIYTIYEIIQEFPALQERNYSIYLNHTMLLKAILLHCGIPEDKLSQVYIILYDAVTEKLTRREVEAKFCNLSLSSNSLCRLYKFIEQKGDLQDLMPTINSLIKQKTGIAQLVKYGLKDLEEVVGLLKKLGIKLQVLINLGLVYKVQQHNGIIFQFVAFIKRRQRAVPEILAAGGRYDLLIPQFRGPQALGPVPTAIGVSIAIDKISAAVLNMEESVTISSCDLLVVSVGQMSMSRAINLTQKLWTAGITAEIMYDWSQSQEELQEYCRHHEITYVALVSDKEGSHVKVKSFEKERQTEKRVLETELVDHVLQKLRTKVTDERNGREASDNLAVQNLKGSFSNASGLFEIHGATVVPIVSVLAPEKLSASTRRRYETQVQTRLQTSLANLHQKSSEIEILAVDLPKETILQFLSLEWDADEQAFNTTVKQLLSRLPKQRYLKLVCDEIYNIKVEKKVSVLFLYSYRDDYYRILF
row,SMILES,IC50
1,CNC(=O)[C@]1(C)CC[C@@H](Nc2ncc3c(Br)nn(-c4cc(C#N)cc(CC#N)c4)c3n2)C1,25 to 200 nM
2,"CNC(=O)[C@@H]1CC[C@@H](Nc2ncc3c(Br)nn(-c4cc(Cl)cc(CO)c4)c3n2)C1 [(1R,3R)-3-[[3-bromo-1-[3-chloro-5-(hydroxy-methyl)phenyl]pyrazolo[3,4-d]pyrimidin-6-yl]amino]-N-methyl-cyclopentanecarboxamide]",25 to 200 nM
3,"CNC(=O)c1cc(Cl)cc(-n2nc(Br)c3cnc(N[C@@H]4CC[C@@](C)(C(=O)NC)C4)nc32)c1 [3-[3-bromo-6-[[(1R,3R)-3-methyl-3-(methylcarbamoyl)cyclopentyl]amino]pyrazolo[3,4-d]pyrimidin-1-yl]-5-chloro-N-methyl-benzamide]",25 to 200 nM
4,"CNC(=O)[C@]1(C)CC[C@@H](Nc2ncc3c(Br)nn(-c4cc5c(c(OCC(F)F)c4)N(C)C(=O)CO5)c3n2)C1 [(1R,3R)-3-[[3-bromo-1-[5-(2,2-difluoro-ethoxy)-4-methyl-3-oxo-1,4-benzoxazin-7-yl]pyrazolo[3,4-d]pyrimidin-6-yl]amino]-N,1-dimethyl-cyclopentanecarboxamide]",< 25 nM
5,Cc1nnc(-c2ccc(-n3nc(Br)c4cnc(N[C@@H]5CCC(S(=O)(=O)NCCC#N)C5)nc43)cc2)s1 (stereo partly shown),25 to 200 nM
6,"CNC(=O)[C@@H]1CC[C@@H](Nc2ncc3c(Br)nn(-c4ccn5nccc5c4)c3n2)C1 [(1R,3R)-3-[(3-bromo-1-pyrazolo[1,5-a]pyridin-5-yl-pyrazolo[3,4-d]pyrimidin-6-yl)amino]-N-methyl-cyclopentane-carboxamide]",25 to 200 nM
7,"CNC(=O)[C@]1(CC(F)F)CC[C@@H](Nc2ncc3c(Br)nn(-c4cc(CC(C)(C)O)c5ncccc5c4)c3n2)C1 [(1R,3R)-3-[[3-bromo-1-[8-(2-hydroxy-2-methyl-propyl)-6-quinolyl]pyrazolo[3,4-d]pyrimidin-6-yl]amino]-1-(2,2-difluoroethyl)-N-methyl-cyclopentanecarboxamide]",25 to 200 nM

# More lines, now with the values ahead:
row,IC50,SMILES
1,< 25 nM,"CN=S(C)(=O)CCNC(=O)[C@@H]1CC[C@@H](Nc2ncc3c(Br)nn(-c4cc(F)c5ncccc5c4)c3n2)C1 (stereo partly drawn) [(1R,3R)-3-((3-bromo-1-(8-fluoroquinolin-6-yl)-1H-pyrazolo[3,4-d]pyrimidin-6-yl)amino)-N-(2-(N,S-dimethylsulfonimidoyl)ethyl)cyclopentane-1-carboxamide]"
2,500 to 1000 nM,"COCCNC(=O)[C@@H]1CC[C@@H](Nc2ncc3c(Br)nn(-c4cnc5ccc(F)cc5c4)c3n2)C1 [(1R,3R)-3-((3-bromo-1-(6-fluoroquinolin-3-yl)-1H-pyrazolo[3,4-d]pyrimidin-6-yl)amino)-N-(2-methoxyethyl)cyclopentane-1-carboxamide]"
3,< 25 nM,"CCC(=O)N1CCN(C(=O)[C@@H]2CC[C@@H](Nc3ncc4c(Br)nn(-c5cc(F)c6ncccc6c5)c4n3)C2)C1 [1-[3-[(1R,3R)-3-[[3-bromo-1-(8-fluoro-6-quinolyl)pyrazolo[3,4-d]pyrimidin-6-yl]amino]cyclopentanecarbonyl]imidazolidin-1-yl]propan-1-one]"
4,< 25 nM,"C[C@H]1C(=O)N(C)CCN1C(=O)[C@@H]1CC[C@@H](Nc2ncc3c(Br)nn(-c4cc(C#N)c5ncccc5c4)c3n2)C1 [6-(3-bromo-6-(((1R,3R)-3-((S)-2,4-dimethyl-3-oxopiperazine-1-carbonyl)cyclopentyl)amino)-1H-pyrazolo[3,4-d]pyrimidin-1-yl) quinoline-8-carbonitrile]"
5,< 25 nM,"CNC(=O)[C@]1(C)CC[C@@H](Nc2ncc3c(Br)nn(-c4cc(CC#N)c5ncccc5c4)c3n2)C1 [(1R,3R)-3-[[3-bromo-1-[8-(cyanomethyl)-6-quinolyl]pyrazolo[3,4-d]pyrimidin-6-yl]amino]-N,1-dimethyl-cyclopentane-carboxamide]"
6,< 25 nM,"O=C(N[C@@H]1CCOC1)[C@@H]1CC[C@@H](Nc2ncc3c(Br)nn(-c4cc(F)c5ncccc5c4)c3n2)C1 [(1R,3R)-3-((3-bromo-1-(8-fluoroquinolin-6-yl)-1H-pyrazolo[3,4-d]pyrimidin-6-yl)amino)-N-((R)-tetrahydrofuran-3-yl)cyclopentane-1-carboxamide]"
